Read-outs that look alike come from different tables or passages of the source.
Target: T1, human Cereblon WT GST-tagged protein (Homo sapiens, UniProt Q96SW2)
T1 construct: purchased CISBIO 64BDCRBNPEH
Test: CRBN binding, HTRF CEREBLON BINDING kit
How it was run: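 Binding inhibition was calculated from the 665/620 nm emission ratios, with blank wells and solvent wells as references. Test compounds competed for GST-tagged human Cereblon WT against a Thalidomide-Re reagent paired with GST Eu antibody. Plates were sealed and held at room temperature for 3 hours before the HTRF read.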

[1] = CRBN binding, HTRF CEREBLON BINDING kit

T1 sequence (Q96SW2 whole entry): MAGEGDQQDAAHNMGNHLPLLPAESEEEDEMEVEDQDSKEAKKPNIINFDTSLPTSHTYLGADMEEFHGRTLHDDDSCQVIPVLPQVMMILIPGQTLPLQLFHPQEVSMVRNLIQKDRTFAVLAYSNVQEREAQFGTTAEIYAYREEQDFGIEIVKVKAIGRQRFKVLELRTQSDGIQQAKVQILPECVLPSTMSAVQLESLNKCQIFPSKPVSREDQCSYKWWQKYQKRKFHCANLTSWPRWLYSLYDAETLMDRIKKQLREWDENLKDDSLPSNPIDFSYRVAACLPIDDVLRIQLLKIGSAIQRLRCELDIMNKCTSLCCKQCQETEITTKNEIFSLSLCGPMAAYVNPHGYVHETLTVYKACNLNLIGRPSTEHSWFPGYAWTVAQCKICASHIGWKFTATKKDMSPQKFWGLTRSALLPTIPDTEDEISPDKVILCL

| SMILES | IC50 [1] | IC50 |
| --- | --- | --- |
| Cc1nc2c(F)cc(-c3nc(Nc4ccc(N5CCC(N6CCN(Cc7ccc(N8CCC(=O)NC8=O)cc7)CC6)CC5)cn4)ncc3F)cc2n1C(C)C [GT-06739, 1-(4-((4-(1-(6-((5-fluoro-4-(4-fluoro-1-isopropyl-2-methyl-1H-benzo[d]imidazol-6-yl)pyrimidin-2-yl)amino)pyridin-3-yl)piperidin-4-yl)piperazin-1-yl)methyl)phenyl)dihydropyrimidine-2,4(1H,3H)-dione] | 500 to 1000 nM | – |
| O=C1CCC(c2cncc(CN3CCN(c4ccc(-c5cc(F)c6c(c5)C(=O)N(C(C(=O)Nc5nccs5)c5ncn7c5CCC7)C6)cc4)CC3)c2)C(=O)N1 (stereo not shown) [GT-07472, 2-(6,7-dihydro-5H-pyrrolo[1,2-c]imidazol-1-yl)-2-(6-(4-(4-((5-(2,6-dioxopiperidin-3-yl)pyridin-3-yl)methyl)piperazin-1-yl)phenyl)-4-fluoro-1-oxoisoindolin-2-yl)-N-(thiazol-2-yl)acetamide] | < 500 nM | – |
| Cc1nc2c(F)cc(-c3nc(Nc4ccc(CN5CCN(Cc6ccc(C7CCC(=O)NC7=O)cc6)CC5)cn4)ncc3F)cc2n1C(C)C (stereo not shown) [GT-06664, 3-(4-((4-((6-((5-fluoro-4-(4-fluoro-1-isopropyl-2-methyl-1H-benzo[d]imidazol-6-yl)pyrimidin-2-yl)amino)pyridin-3-yl)methyl)piperazin-1-yl)methyl)phenyl)piperidine-2,6-dione] | 500 to 1000 nM | – |
| CN(C)C(=O)c1cc2cnc(Nc3ccc(N4CCN(Cc5ccc(N6CCC(=O)NC6=O)cc5)CC4)cn3)nc2n1C1CCCC1 [GT-06340, 7-cyclopentyl-2-((5-(4-(4-(2,4-dioxotetrahydropyrimidin-1(2H)-yl)benzyl)piperazin-1-yl)pyridin-2-yl)amino)-N,N-dimethyl-7H-pyrrolo[2,3-d]pyrimidine-6-carboxamide] | 500 to 1000 nM | – |
| O=C1CCC(c2ccc(CN3C4CCC3CN(c3ccc(-c5cc(F)c6c(c5)C(=O)N(C(C(=O)Nc5nccs5)c5ncn7c5CCC7)C6)cc3)C4)cc2)C(=O)N1 (stereo not shown) [GT-06252, 2-(6,7-dihydro-5H-pyrrolo[1,2-c]imidazol-1-yl)-2-(6-(4-(8-(4-(2,6-dioxopiperidin-3-yl)benzyl)-3,8-diazabicyclo[3.2.1]octan-3-yl)phenyl)-4-fluoro-1-oxoisoindolin-2-yl)-N-(thiazol-2-yl)acetamide] | < 500 nM | – |
| O=C1CCN(c2cc(CN3CCN(c4ccc(-c5cc(F)c6c(c5)C(=O)N(C(C(=O)Nc5nccs5)c5ncn7c5CCC7)C6)cc4)CC3)ccn2)C(=O)N1 (stereo not shown) [GT-07379, 2-(6,7-dihydro-5H-pyrrolo[1,2-c]imidazol-1-yl)-2-(6-(4-(4-((2-(2,4-dioxotetrahydropyrimidin-1(2H)-yl)pyridin-4-yl)methyl)piperazin-1-yl)phenyl)-4-fluoro-1-oxoisoindolin-2-yl)-N-(thiazol-2-yl)acetamide] | < 500 nM | – |
| Cc1nc2c(F)cc(-c3nc(Nc4ccc(CN5CCN(Cc6ccc(N7CCC(=O)NC7=O)cn6)CC5)cn4)ncc3F)cc2n1C(C)C [GT-06667, 1-(6-((4-((6-((5-fluoro-4-(4-fluoro-1-isopropyl-2-methyl-1H-benzo[d]imidazol-6-yl)pyrimidin-2-yl)amino)pyridin-3-yl)methyl)piperazin-1-yl)methyl)pyridin-3-yl)dihydropyrimidine-2,4(1H,3H)-dione] | 1000 to 1900 nM | – |
| O=C1CCN(c2ccc(CN3CCC(n4cc(NC(=O)c5cnn6ccc(N7C[C@H]8C[C@@H]7CO8)nc56)c(C(F)F)n4)CC3)nc2)C(=O)N1 [GT-05053, 5-((1R,4R)-2-oxa-5-azabicyclo[2.2.1]heptan-5-yl)-N-(3-(difluoromethyl)-1-(1-((5-(2,4-dioxotetrahydropyrimidin-1(2H)-yl)pyridin-2-yl)methyl)piperidin-4-yl)-1H-pyrazol-4-yl)pyrazolo[1,5-a]pyrimidine-3-carboxamide] | 500 to 1000 nM | – |
| C=CC(=O)Nc1cc(Nc2nccc(-c3cn(C)c4ccccc34)n2)c(OC)cc1N(C)CCN(C)C [osimertinib, reference compound] | – | > 10000 nM |
| O=C1CCN(c2cccc(CN3CCC(n4cc(NC(=O)c5cnn6ccc(N7C[C@H]8C[C@@H]7CO8)nc56)c(C(F)F)n4)CC3)c2)C(=O)N1 [GT-05051, 5-((1R,4R)-2-oxa-5-azabicyclo[2.2.1]heptan-5-yl)-N-(3-(difluoromethyl)-1-(1-(3-(2,4-dioxotetrahydropyrimidin-1(2H)-yl)benzyl)piperidin-4-yl)-1H-pyrazol-4-yl)pyrazolo[1,5-a]pyrimidine-3-carboxamide] | 500 to 1000 nM | – |
| CCc1cc2c(cc1N1CCN(Cc3ccc(N4CCC(=O)NC4=O)cn3)CC1)C(C)(C)c1[nH]c3cc(C#N)ccc3c1C2=O [GT-07326, 8-(4-((5-(2,4-dioxotetrahydropyrimidin-1(2H)-yl)pyridin-2-yl)methyl)piperazin-1-yl)-9-ethyl-6,6-dimethyl-11-oxo-6,11-dihydro-5H-benzo[b]carbazole-3-carbonitrile] | 1000 to 1900 nM | – |
| COc1cc(N2CCN(Cc3cc(C4CCC(=O)NC4=O)cnc3F)CC2)ccc1Nc1ncc(Cl)c(Nc2ccccc2P(C)(C)=O)n1 (stereo not shown) [GT-07710, 3-(5-((4-(4-((5-chloro-4-((2-(dimethylphosphoryl)phenyl)amino)pyrimidin-2-yl)amino)-3-methoxyphenyl)piperazin-1-yl)methyl)-6-fluoropyridin-3-yl)piperidine-2,6-dione] | < 500 nM | – |
| CN(Cc1cncc(N2CCC(=O)NC2=O)c1)C1CCN(c2ccc(-c3cc(F)c4c(c3)C(=O)N(C(C(=O)Nc3nccs3)c3ncn5c3CCC5)C4)cc2)CC1 (stereo not shown) [GT-07384, 2-(6,7-dihydro-5H-pyrrolo[1,2-c]imidazol-1-yl)-2-(6-(4-(4-(((5-(2,4-dioxotetrahydropyrimidin-1(2H)-yl)pyridin-3-yl)methyl)(methyl)amino)piperidin-1-yl)phenyl)-4-fluoro-1-oxoisoindolin-2-yl)-N-(thiazol-2-yl)acetamide] | < 500 nM | – |
| O=C1CCN(c2ccc(CN3CCN(C4CCN(c5ccc(-c6cc(F)c7c(c6)C(=O)N(C(C(=O)Nc6nccs6)c6ncn8c6CCC8)C7)cc5)CC4)CC3)nc2)C(=O)N1 (stereo not shown) [GT-06246, 2-(6,7-dihydro-5H-pyrrolo[1,2-c]imidazol-1-yl)-2-(6-(4-(4-(4-((5-(2,4-dioxotetrahydropyrimidin-1(2H)-yl)pyridin-2-yl)methyl)piperazin-1-yl)piperidin-1-yl)phenyl)-4-fluoro-1-oxoisoindolin-2-yl)-N-(thiazol-2-yl)acetamide] | < 500 nM | – |
| COc1cc(N2CCC(N(C)Cc3cc(C4CCC(=O)NC4=O)cnc3F)CC2)ccc1Nc1ncc(Cl)c(Nc2ccccc2P(C)(C)=O)n1 (stereo not shown) [GT-07696, 3-(5-(((1-(4-((5-chloro-4-((2-(dimethylphosphoryl)phenyl)amino)pyrimidin-2-yl)amino)-3-methoxyphenyl)piperidin-4-yl)(methyl)amino)methyl)-6-fluoropyridin-3-yl)piperidine-2,6-dione] | < 500 nM | – |

Further lines, with some results ahead:

| IC50 [1] | SMILES | IC50 |
| --- | --- | --- |
| 500 to 1000 nM | O=C1CCN(c2ccc(CN3C[C@H]4C[C@@H]3CN4c3ccc(-c4cc(F)c5c(c4)C(=O)N(C(C(=O)Nc4nccs4)c4ncn6c4CCC6)C5)cc3)nc2)C(=O)N1 (stereo partly drawn) [GT-06190, 2-(6,7-dihydro-5H-pyrrolo[1,2-c]imidazol-1-yl)-2-(6-(4-((1R,4R)-5-((5-(2,4-dioxotetrahydropyrimidin-1(2H)-yl)pyridin-2-yl)methyl)-2,5-diazabicyclo[2.2.1]heptan-2-yl)phenyl)-4-fluoro-1-oxoisoindolin-2-yl)-N-(thiazol-2-yl)acetamide] | – |
| 1000 to 1900 nM | CN(Cc1ccc(N2CCC(=O)NC2=O)nc1)C1CCN(c2ccc(-c3cc(F)c4c(c3)C(=O)N(C(C(=O)Nc3nccs3)c3ncn5c3CCC5)C4)cc2)CC1 (stereo not shown) [GT-05283, 2-(6,7-dihydro-5H-pyrrolo[1,2-c]imidazol-1-yl)-2-(6-(4-(4-(((6-(2,4-dioxotetrahydropyrimidin-1(2H)-yl)pyridin-3-yl)methyl)(methyl)amino)piperidin-1-yl)phenyl)-4-fluoro-1-oxoisoindolin-2-yl)-N-(thiazol-2-yl)acetamide] | – |
| 1000 to 1900 nM | COc1cc(N2CCC(N3CCN(Cc4cccc(N5CCC(=O)NC5=O)c4)CC3)CC2)ccc1Nc1ncc(Cl)c(Nc2ccccc2P(C)(C)=O)n1 [GT-07604, 1-(3-((4-(1-(4-((5-chloro-4-((2-(dimethylphosphoryl)phenyl)amino)pyrimidin-2-yl)amino)-3-methoxyphenyl)piperidin-4-yl)piperazin-1-yl)methyl)phenyl)dihydropyrimidine-2,4(1H,3H)-dione] | – |
| 500 to 1000 nM | O=C1CCN(c2ccc(CN3CCN(C4CCN(c5ccc(Nc6ncc7nc(Nc8ccccc8)n(C8CCCC8)c7n6)cc5)CC4)CC3)cc2)C(=O)N1 [GT-05917, 1-(4-((4-(1-(4-((9-cyclopentyl-8-(phenylamino)-9H-purin-2-yl)amino)phenyl)piperidin-4-yl)piperazin-1-yl)methyl)phenyl)dihydropyrimidine-2,4(1H,3H)-dione] | – |
| 500 to 1000 nM | CCc1cc2c(cc1N1CCN(Cc3cccc(N4CCC(=O)NC4=O)c3)CC1)C(C)(C)c1[nH]c3cc(C#N)ccc3c1C2=O [GT-07325, 8-(4-(3-(2,4-dioxotetrahydropyrimidin-1(2H)-yl)benzyl)piperazin-1-yl)-9-ethyl-6,6-dimethyl-11-oxo-6,11-dihydro-5H-benzo[b]carbazole-3-carbonitrile] | – |
| 1000 to 1900 nM | CC(=O)c1c(C)c2cnc(Nc3ccc(N4CCN(Cc5cccc(N6CCC(=O)NC6=O)c5)CC4)cn3)nc2n(C2CCCC2)c1=O [GT-06577, 1-(3-((4-(6-((6-acetyl-8-cyclopentyl-5-methyl-7-oxo-7,8-dihydropyrido[2,3-d]pyrimidin-2-yl)amino)pyridin-3-yl)piperazin-1-yl)methyl)phenyl)dihydropyrimidine-2,4(1H,3H)-dione] | – |
| < 500 nM | CN(Cc1cncc(C2CCC(=O)NC2=O)c1)C1CCN(c2ccc(-c3cc(F)c4c(c3)C(=O)N(C(C(=O)Nc3nccs3)c3ncn5c3CCC5)C4)cc2)CC1 (stereo not shown) [GT-07393, 2-(6,7-dihydro-5H-pyrrolo[1,2-c]imidazol-1-yl)-2-(6-(4-(4-(((5-(2,6-dioxopiperidin-3-yl)pyridin-3-yl)methyl)(methyl)amino)piperidin-1-yl)phenyl)-4-fluoro-1-oxoisoindolin-2-yl)-N-(thiazol-2-yl)acetamide] | – |

Reference: US20260274829A1, “NEW E3 UBIQUITIN LIGASE LIGAND, PROTEIN DEGRADATION AGENT AND USE THEREOF” (GLUETACS THERAPEUTICS (SHANGHAI) CO., LTD., priority 2023, published 2026)
